Results from patent US20090081189A1, “Process for in vitro differentiation of neuronal stem cells or of cells derived from neuronal stem cells” (Axaron Bioscfience Ag, priority 2003, published 2009).

Tested on: beta-catenin
Test: Western blot of beta-catenin in adult neuronal stem and progenitor cells after inhibition of the Wnt signal pathway
Format: cell-based, rat
Settings: genistein 50 μM, undifferentiated and differentiated, densitometry of Western blot, versus cells without inhibition
Description: To inhibit the Wnt signal pathway, the unspecific kinase inhibitor genistein is added at a concentration of 50 μM in order to inhibit the action of glycogen synthase kinase 3 (GSK 3) (Murase S et al., 2002, Neuron, 35, 91-105).
Subsequently, a protein extract (see above, example 1) is prepared and the beta-catenin protein is identified by one dimensional gel electrophoresis and Western blotting (FIG. 3, FIG. 4).
The protein extracts of the adult neuronal stem cells are first fractionated in a 12% polyacrylamide gel in Lammli buffer consisting of 2% (w/v) sodium dodecylsulfate, 10% (v/v) glycerol, 100 mM dithiothreitol, 60 mM Tris-HCl, pH 6.8, 0.001% bromophenol blue and 5% 2-mercaptoethanol and applied to a nitrocellulose membrane (Optitran BA-S83, 0.2 μm, Schleicher & Schnell, Dassel, Germany) by the semi-dry blotting method (Kyhse-Andersen J, 1984, J Biochem Biophys Methods, 10, 203-209). […] Antibody binding is detected by way of chemiluminescent signals. […] The X-ray films are developed and measured densitometrically. […]

O=c1c(-c2ccc(O)cc2)coc2cc(O)cc(O)c12 [genistein, 4′,5,7-trihydroxyisoflavone]
reduction of β-catenin expression (factor): ~2
